Reference: ChEMBL document CHEMBL4190382, “Targeting lysine specific demethylase 4A (KDM4A) tandem TUDOR domain - A fragment based approach” (Bioorg Med Chem Lett, 2018)
Active and inactive are the calls of the source. The calls are words filed in the database; no cut-off is given here. Square brackets hold non-standard residues; d marks the D form. Peptide text beside a SMILES is read from it. Lys(Me3) = C[N+](C)(C)CCCC[C@H](N)C(=O)O

How the values were obtained:
[1] = biological target: T1, Lysine-specific demethylase 4A (Homo sapiens, UniProt O75164); test: Binding affinity to thrombin cleavable N-terminal 6His tagged and 13C-IVLM labeled human KDM4A tandem TUDOR domain (897 to 1011 residues) expressed in Escherichia coli BL21(DE3)-T1R by ITC method
T1 sequence (O75164 whole entry): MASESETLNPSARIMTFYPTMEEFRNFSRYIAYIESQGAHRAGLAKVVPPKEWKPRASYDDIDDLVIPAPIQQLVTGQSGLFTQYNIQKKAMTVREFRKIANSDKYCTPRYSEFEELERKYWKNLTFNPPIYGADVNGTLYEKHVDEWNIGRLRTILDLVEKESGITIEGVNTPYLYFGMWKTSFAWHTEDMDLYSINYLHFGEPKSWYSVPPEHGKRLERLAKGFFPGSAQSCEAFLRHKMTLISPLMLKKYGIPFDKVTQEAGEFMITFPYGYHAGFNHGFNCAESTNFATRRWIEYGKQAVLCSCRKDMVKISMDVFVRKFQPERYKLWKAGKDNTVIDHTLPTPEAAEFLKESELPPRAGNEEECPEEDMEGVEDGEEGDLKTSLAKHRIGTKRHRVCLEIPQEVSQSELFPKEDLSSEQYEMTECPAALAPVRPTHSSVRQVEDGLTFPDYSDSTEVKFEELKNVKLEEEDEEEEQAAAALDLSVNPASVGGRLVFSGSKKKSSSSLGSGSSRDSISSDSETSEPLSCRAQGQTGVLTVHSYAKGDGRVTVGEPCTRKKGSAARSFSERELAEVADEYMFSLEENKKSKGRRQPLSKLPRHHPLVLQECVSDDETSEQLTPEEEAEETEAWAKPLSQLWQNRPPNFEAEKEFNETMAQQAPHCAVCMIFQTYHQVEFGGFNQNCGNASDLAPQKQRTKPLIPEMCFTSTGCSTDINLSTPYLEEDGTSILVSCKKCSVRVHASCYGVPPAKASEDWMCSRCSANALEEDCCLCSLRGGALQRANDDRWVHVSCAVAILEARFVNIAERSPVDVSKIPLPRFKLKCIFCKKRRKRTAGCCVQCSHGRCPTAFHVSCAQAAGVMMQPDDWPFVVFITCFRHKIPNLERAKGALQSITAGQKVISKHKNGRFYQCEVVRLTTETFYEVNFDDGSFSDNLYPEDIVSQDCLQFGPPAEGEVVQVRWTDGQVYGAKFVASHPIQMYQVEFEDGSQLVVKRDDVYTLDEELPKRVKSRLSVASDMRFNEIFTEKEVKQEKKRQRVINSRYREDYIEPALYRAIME

[2] = biological target: T1, Lysine-specific demethylase 4A; test: (§1) Binding affinity to thrombin cleavable N-terminal 6His-tagged and 13C-IVLM labeled human KDM4A tandem TUDOR domain (897 to 1011 residues) expressed in Escherichia coli BL21(DE3)-T1R at 1 mM by 13C HSQC NMR spectroscopy
[3] = biological target: T1, Lysine-specific demethylase 4A; test: Inhibition of NanoLuc-KDM4A-TUDOR domain (unknown origin) binding to Histone H3.3-HaloTag expressed in 293T cells incubated for 18 hrs by Nano-BRET based target engagement assay; format: cell-based
[4] = biological target: T2, Lysine-specific demethylase 4A (Homo sapiens) (UniProt O75164); test: as §1
T2 sequence (whole entry): T1 sequence (O75164 whole entry)

`CC(C)C[C@H](NC(=O)[C@@H](NC(=O)[C@H](CCCC[N+](C)(C)C)NC(=O)[C@H](CCCNC(=N)N)NC(=O)[C@H](Cc1cnc[nH]1)NC(=O)[C@H](CCCNC(=N)N)NC(=O)[C@@H](N)CCCCN)C(C)C)C(=O)N[C@@H](CCCNC(=N)N)C(=O)N[C@@H](CC(=O)O)C(=O)N[C@@H](CC(N)=O)C(=O)O` (H-KRHR[Lys(Me3)]VLRDN-OH) showed a Kd [1] of 4.7 µM.
With `CN(C)CC1C2CCC(c3ccccc3)(C2)C1O` (stereo not given) the Kd [2] was 80 µM.
Work on `CN(C)C[C@@H]1C2CCC(c3ccccc3)(C2)[C@@H]1O` (stereo not given in full) yielded an EC50 [3] of 1220 µM.
With `C[C@H](N)C(=O)N[C@@H](CCCNC(=N)N)C(=O)N[C@H](C(=O)N[C@@H](CCCC[N+](C)(C)C)C(=O)N[C@@H](CCC(N)=O)C(=O)N[C@H](C(=O)N[C@@H](C)C(=O)N[C@@H](CCCNC(=N)N)C(=O)N[C@@H](CCCCN)C(=O)N[C@@H](CO)C(=O)O)[C@@H](C)O)[C@@H](C)O` the Activity [4] was “Active” and the Kd [1] was 3 µM.
